Measured values from ChEMBL document CHEMBL3232777, “QSAR models for HEPT derivates as NNRTI inhibitors based on Monte Carlo method” (Eur J Med Chem, 2014).

tested on: Human immunodeficiency virus 1; assay: Antiviral activity against HIV1 3B infected in human MT4 cells assessed as protection from cytopathic effect; format: functional, organism-based; conditions: Human immunodeficiency virus 1, 3B

In order of falling IC50:
1. Cc1c(Sc2cccc(C(=O)O)c2)n(COCCO)c(=O)[nH]c1=O  355 µM
2. Cc1c(Sc2cccc(C(N)=O)c2)n(COCCO)c(=O)[nH]c1=O  309 µM
3. Cc1c(Sc2cccc(CO)c2)n(COCCO)c(=O)[nH]c1=O  295 µM
4. Cc1c(Sc2ccc(O)cc2)n(COCCO)c(=O)[nH]c1=O  275 µM
5. Cc1c(O)nc(O)nc1Sc1ccccc1  251 µM
6. Cc1c(Sc2ccc(C#N)cc2)n(COCCO)c(=O)[nH]c1=O  251 µM
7. Cc1c(Sc2ccc(Cl)cc2)n(COCCO)c(=O)[nH]c1=O  251 µM
8. COc1ccc(Sc2c(C)c(=O)[nH]c(=O)n2COCCO)cc1  251 µM
9. Cc1c(Sc2ccc(F)cc2)n(COCCO)c(=O)[nH]c1=O  251 µM
10. Cc1c(Sc2cccc(N)c2)n(COCCO)c(=O)[nH]c1=O  251 µM
11. Cc1ccc(Sc2c(C)c(=O)[nH]c(=O)n2COCCO)cc1  219 µM
12. Cc1c(Sc2ccc([N+](=O)[O-])cc2)n(COCCO)c(=O)[nH]c1=O  191 µM
13. Cc1c(Sc2ccccc2)n(C)c(=O)[nH]c1=O  151 µM
14. Cc1c(Sc2ccccc2[N+](=O)[O-])n(COCCO)c(=O)[nH]c1=O  141 µM
15. Cc1c(Sc2ccccc2Cl)n(COCCO)c(=O)[nH]c1=O  129 µM
16. CC(=O)c1ccc(Sc2c(C)c(=O)[nH]c(=O)n2COCCO)cc1  110 µM
17. O=c1[nH]c(=O)n(COCCO)c(Sc2ccccc2)c1F  100 µM
18. Cc1c(Sc2cccc(O)c2)n(COCCO)c(=O)[nH]c1=O  81.3 µM
19. Cc1ccccc1Sc1c(C)c(=O)[nH]c(=O)n1COCCO  70.8 µM
20. Cc1c(Sc2cccc(C(F)(F)F)c2)n(COCCO)c(=O)[nH]c1=O  44.7 µM
21. O=c1[nH]c(=O)n(COCCO)c(Sc2ccccc2)c1Cc1ccccc1  42.7 µM
22. CCCCCOCCOCn1c(Sc2ccccc2)c(C)c(=O)[nH]c1=O  34.7 µM
23. Cc1c(Sc2cccc([N+](=O)[O-])c2)n(COCCO)c(=O)[nH]c1=O  33.9 µM
24. O=c1[nH]c(=O)n(COCCO)c(Sc2ccccc2)c1Cl  30.2 µM
25. COc1cccc(Sc2c(C)c(=O)[nH]c(=O)n2COCCO)c1  21.9 µM
26. O=c1[nH]c(=O)n(COCCO)c(Sc2ccccc2)c1Sc1ccccc1  20.9 µM
27. Cc1c(Sc2ccccc2)n(COCCOCc2ccccc2)c(=O)[nH]c1=O  20 µM
28. O=c1[nH]c(=O)n(COCCO)c(Sc2ccccc2)c1Br  20 µM
29. CC#Cc1c(Sc2ccccc2)n(COCCO)c(=O)[nH]c1=O  19.1 µM
30. COc1ccccc1Sc1c(C)c(=O)[nH]c(=O)n1COCCO  19.1 µM
31. O=C(Nc1ccccc1)c1c(Sc2ccccc2)n(COCCO)c(=O)[nH]c1=O  18.2 µM
32. C#Cc1c(Sc2ccccc2)n(COCCO)c(=O)[nH]c1=O  18.2 µM
33. O=C(c1ccccc1)c1c(Sc2ccccc2)n(COCCO)c(=O)[nH]c1=O  12.9 µM
34. Cc1c(Sc2cccc(Cl)c2)n(COCCO)c(=O)[nH]c1=O  12.9 µM
35. CC(C)C(=O)c1c(Sc2ccccc2)n(COCCO)c(=O)[nH]c1=O  12 µM
36. Cc1c(Sc2cccc(C(C)(C)C)c2)n(COCCO)c(=O)[nH]c1=O  12 µM
37. Cc1c(Sc2cccc(I)c2)n(COCCO)c(=O)[nH]c1=O  10 µM
38. Cc1c(Sc2cccc(C#N)c2)n(COCCO)c(=O)[nH]c1=O  10 µM
39. CCCc1c(Sc2ccccc2)n(COCCO)c(=S)[nH]c1=O  10 µM
40. COCCOCn1c(Sc2ccccc2)c(C)c(=O)[nH]c1=O  8.71 µM
41. COC(=O)c1cccc(Sc2c(C)c(=O)[nH]c(=O)n2COCCO)c1  7.94 µM
42. Cc1c(Sc2ccccc2)n(COCCOC(=O)c2ccccc2)c(=O)[nH]c1=O  7.59 µM
43. CC(=O)c1cccc(Sc2c(C)c(=O)[nH]c(=O)n2COCCO)c1  7.24 µM
44. Cc1c(Sc2ccccc2)n(COCCO)c(=O)[nH]c1=O [HEPT]  7.08 µM
45. CC(=O)OCCOCn1c(Sc2ccccc2)c(C)c(=O)[nH]c1=O  6.76 µM
46. COC(=O)c1c(Sc2ccccc2)n(COCCO)c(=O)[nH]c1=O  6.61 µM
47. O=c1[nH]c(=O)n(COCCO)c(Sc2ccccc2)c1/C=C/c1ccccc1  6.03 µM
48. Cc1c(Sc2ccccc2)n(COCCN=[N+]=[N-])c(=O)[nH]c1=O  5.75 µM
49. Cc1c(Sc2cccc(Br)c2)n(COCCO)c(=O)[nH]c1=O  5.75 µM
50. CCCCOCn1c(Sc2ccccc2)c(C)c(=O)[nH]c1=O  4.68 µM
51. CCc1c(Sc2ccccc2)n(COC2CCCCC2)c(=O)[nH]c1=O  3.98 µM
52. O=c1[nH]c(=O)n(COCCO)c(Sc2ccccc2)c1I  3.63 µM
53. CCCc1c(Sc2ccccc2)n(COCCO)c(=O)[nH]c1=O  3.39 µM
54. O=c1[nH]c(=O)n(COCCO)c(Sc2ccccc2)c1C#Cc1ccccc1  3.39 µM
55. CCCOCn1c(Sc2ccccc2)c(C)c(=O)[nH]c1=O  3.31 µM
56. Cc1c(Sc2cccc(F)c2)n(COCCO)c(=O)[nH]c1=O  3.31 µM
57. CCc1cccc(Sc2c(C)c(=O)[nH]c(=O)n2COCCO)c1  2.69 µM
58. Cc1cccc(Sc2c(C)c(=O)[nH]c(=O)n2COCCO)c1  2.57 µM
59. C=CCc1c(Sc2ccccc2)n(COCCO)c(=O)[nH]c1=O  2.51 µM
60. CCn1c(Sc2ccccc2)c(C)c(=O)[nH]c1=O  2.19 µM
61. COCn1c(Sc2ccccc2)c(C)c(=O)[nH]c1=O  2.09 µM
62. C=Cc1c(Sc2ccccc2)n(COCCO)c(=O)[nH]c1=O  2.04 µM
63. CCc1c(Sc2ccccc2)n(COC2CCCCC2)c(=S)[nH]c1=O  1.62 µM
64. Cc1c(Sc2ccccc2)n(COCCCl)c(=O)[nH]c1=O  1.51 µM
65. Cc1c(Sc2cc(Cl)cc(Cl)c2)n(COCCO)c(=O)[nH]c1=O  1.29 µM
66. CCCCn1c(Sc2ccccc2)c(C)c(=O)[nH]c1=O  1.2 µM
67. Cc1c(Sc2ccccc2)n(COCCF)c(=O)[nH]c1=O  1.1 µM
68. Cc1c(Sc2ccccc2)n(COCCO)c(=S)[nH]c1=O  0.977 µM
69. O=c1[nH]c(=O)n(COCCO)c(Sc2ccccc2)c1C=C(c1ccccc1)c1ccccc1  0.851 µM
70. CCc1c(Sc2ccccc2)n(COCC2CCCCC2)c(=O)[nH]c1=O  0.447 µM
71. CCc1c(Sc2ccccc2)n(COCC2CCCCC2)c(=S)[nH]c1=O  0.355 µM
72. CCc1c(Sc2ccccc2)n(COC(C)C)c(=O)[nH]c1=O  0.339 µM
73. CCOCn1c(Sc2ccccc2)c(C)c(=O)[nH]c1=O  0.331 µM
74. CCc1c(Sc2ccccc2)n(COC(C)C)c(=S)[nH]c1=O  0.219 µM
75. Cc1cc(C)cc(Sc2c(C)c(=O)[nH]c(=S)n2COCCO)c1  0.219 µM
76. CCc1c(Sc2ccccc2)n(COCCO)c(=O)[nH]c1=O  0.12 µM
77. CCc1c(Sc2ccccc2)n(COCCO)c(=S)[nH]c1=O  0.11 µM
78. CCOCn1c(Sc2ccccc2)c(C2CC2)c(=O)[nH]c1=O  0.1 µM
79. CCOCn1c(Sc2ccccc2)c(C2CC2)c(=O)[nH]c1=S  0.0955 µM
80. CCc1c(Sc2ccccc2)n(COCCc2ccccc2)c(=O)[nH]c1=O  0.0955 µM
81. CCc1c(Sc2ccccc2)n(COCCc2ccccc2)c(=S)[nH]c1=O  0.0912 µM
82. Cc1c(Sc2ccccc2)n(COCc2ccccc2)c(=O)[nH]c1=O  0.0871 µM
83. CCc1c(Sc2ccccc2)n(COCc2ccc(C)cc2)c(=S)[nH]c1=O  0.0776 µM
84. CC(C)c1c(Sc2ccccc2)n(COCCO)c(=O)[nH]c1=O  0.0631 µM
85. CC(C)c1c(Sc2ccccc2)n(COCCO)c(=S)[nH]c1=O  0.0589 µM
86. CCc1c(Sc2cc(Cl)cc(Cl)c2)n(COCCO)c(=S)[nH]c1=O  0.0427 µM
87. CCOCn1c(Sc2ccccc2)c(CC)c(=O)[nH]c1=S  0.0263 µM
88. CCOCn1c(Sc2ccccc2)c(CC)c(=O)[nH]c1=O  0.0191 µM
89. CCc1c(Sc2cc(Cl)cc(Cl)c2)n(COCCO)c(=O)[nH]c1=O  0.0141 µM
90. CCOCn1c(Sc2cc(Cl)cc(Cl)c2)c(CC)c(=O)[nH]c1=S  0.0129 µM
91. CCOCn1c(Sc2ccccc2)c(C(C)C)c(=O)[nH]c1=S  0.0129 µM
92. CCc1c(Sc2ccccc2)n(COCc2ccc(Cl)cc2)c(=S)[nH]c1=O  0.012 µM
93. CCOCn1c(Sc2ccccc2)c(C(C)C)c(=O)[nH]c1=O  0.0102 µM
94. CCc1c(Sc2ccccc2)n(COCc2ccccc2)c(=S)[nH]c1=O  0.00813 µM
95. CCc1c(Sc2cc(C)cc(C)c2)n(COCCO)c(=S)[nH]c1=O  0.00776 µM
96. CCOCn1c(Sc2cc(Cl)cc(Cl)c2)c(CC)c(=O)[nH]c1=O  0.00741 µM
97. CCc1c(Sc2cc(C)cc(C)c2)n(COCc2ccccc2)c(=S)[nH]c1=O  0.00724 µM
98. CC(C)c1c(Sc2ccccc2)n(COCc2ccccc2)c(=S)[nH]c1=O  0.00724 µM
99. CCc1c(Sc2ccccc2)n(COCc2ccccc2)c(=O)[nH]c1=O  0.00589 µM
100. CCOCn1c(Sc2cc(C)cc(C)c2)c(CC)c(=O)[nH]c1=O  0.00575 µM
101. CCOCn1c(Sc2cc(C)cc(C)c2)c(CC)c(=O)[nH]c1=S  0.00501 µM
102. Cc1cc(C)cc(Sc2c(C(C)C)c(=O)[nH]c(=S)n2COCCO)c1  0.00501 µM
103. CC(C)c1c(Sc2ccccc2)n(COCc2ccccc2)c(=O)[nH]c1=O  0.00309 µM
104. CCc1c(Sc2cc(C)cc(C)c2)n(COCc2ccccc2)c(=O)[nH]c1=O  0.00282 µM
